Results from patent publication US10100047B2, “Piperidine derivatives as orexin receptor antagonist” (SHANGHAI HAIYAN PHARMACEUTICAL TECHNOLOGY CO., LTD., priority 2014, dated 2018).
Read-outs that look alike come from different tables or passages of the source.

How the values were obtained:
hOX2R = target: T1, hOX2R (Homo sapiens, UniProt O43614); assay: In vitro test of OX2R: calcium signal change in cells detected with FLIPR; assay type: cell-based; conditions: HEK293-OX2 stable cell strain, Fluo-4 AM calcium signal, Orexin A at EC70
T1 construct: expressed in transfected cells
T1 sequence (O43614 1-444): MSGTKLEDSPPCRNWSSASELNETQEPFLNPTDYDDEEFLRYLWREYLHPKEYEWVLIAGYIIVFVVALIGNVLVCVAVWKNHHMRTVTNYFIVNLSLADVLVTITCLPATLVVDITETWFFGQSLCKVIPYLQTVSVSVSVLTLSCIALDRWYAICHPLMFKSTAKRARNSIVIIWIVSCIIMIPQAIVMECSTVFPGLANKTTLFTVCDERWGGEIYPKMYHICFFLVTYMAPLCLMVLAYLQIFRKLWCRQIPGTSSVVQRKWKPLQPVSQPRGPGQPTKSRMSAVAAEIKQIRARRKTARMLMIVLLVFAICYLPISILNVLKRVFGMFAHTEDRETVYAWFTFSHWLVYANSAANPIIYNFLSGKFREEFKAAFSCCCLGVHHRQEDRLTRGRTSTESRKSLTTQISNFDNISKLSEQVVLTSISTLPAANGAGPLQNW
Protocol: (§1) The inhibitive effect of a compound on OX1 and OX2 GPCR receptor was evaluated by detecting calcium signal change in cells with FLIPR, and IC50 value of compound was used as an indication.
(§2) Experimental Materials: • Cell line: HEK293-OX1 and OX2 stable cell strain • HEK293-OX1 cell culture media (DMEM, Invitrogen#11960-044, 10% serum Gibco#10099141, L-Glutamine 1×, Gibco#25030, sodium pyruvate 1×, Gibco #11360, Geneticin 300 μg/ml, Gibco #10131). • HEK293-OX2 cell culture media (DMEM, Invitrogen#11960-044, 10% serum Gibco#10099141, L-Glutamine 1×, Gibco#25030, sodium pyruvate 1×, Gibco #11360, Geneticin 300 μg/ml, Gibco #10131, Blasticin 2 μg/ml, Invitrogen # R21001). • Pancreatic enzyme (Invitrogen, #25200-072) • DPBS (Hyclone, #SH30028.01B) • Fluo-4 AM, Invitrogen# F14202 • F-127, Invitrogen # P3000MP • Probenecid, Sigma # P8761 • 384-well cell plate, Greiner #781946 • 384-well compound plate, Greiner #781280 • CO2 incubator, Thermo#371 • Centrifuge, Eppendorf #5810R • Vi-cell cytometry, Beckman Coulter • POD 810 Plate Assembler Automatic microplate pretreatment system • Labcyte FLIPR, Molecular Device.
(§3) a) cell inoculation (HEK293-OX1 and HEK293-OX2 cells) • 1) The medium trypsin, and DPBS were preheated at 37° C. under water bath. Culture medium of cells was sucked and cells were washed with 10 mL DPBS. • 2) The preheated trypsin was added into the culture bottle which was rotated so that trypsin uniformly covered the bottle. It was placed in an incubator (37° C., 5% CO2) to digest for 1-2 minutes; • 3) Each T150 was suspended with 10-15 mL of culture medium, and centrifuged at 800 rpm for 5 minutes. Cells were resuspended with 10 mL medium, and 1 mL of the cell re-suspension was sucked out and counted with Vi-cell cytometry. • 4) The OX1 cells were diluted with culture medium to 5×10^5 cells/mL, and OX2 cells were diluted to 4×10^5 cells/mL. The diluted cells were added into 384 plate (Greiner. 781946) with multichannel pipettes (50 μL/hole, OX1 cells: 25000 cells/hole; and OX2 cells: 20000 cells/hole). The cell plate was placed in an incubator (37° C., 5% CO2) overnight.
(§4) b) loading of the compound: • 1) DMSO was used to dilute the compound into 20 mM by using 3-fold dilution. 8 gradients in duplicate wells were used. Echo liquid handler was used to add the compound into a compound plate. Then 20 μL buffer was added to ensure that the final DMSO concentration was 0.1%.
(§5) c) FLIPR Experiment: • 1) The cell culture medium in 384-well plate was washed away with a vacuum pump. 30 μL fluorescent dye Fluo4AM was added. […] 8 gradients in duplicate wells were used. Then the DMSO plate was prepared and the DMSO concentration was 0.5%. The cell plate, Orexin A plate, and DMSO plate were placed into FLIPR respectively, and the fluorescence values were read. • 3) EC70 value was calculated based on EC50 value of Orexin A. 5×EC70 solution was prepared and added into a 384-well compound plate with multichannel pipettes. The plate was placed on ice for preservation. • 4) In the FLIPR, the compound plate, 5×EC70 plate, cell plate and FLIPR tips were placed respectively. The program was run and the fluorescence values were read.
(§6) d) Data Analysis: Prism5.0 was used to analysis the data, and the IC50 value of the compound was calculated.

hOX1R = target: T2, hOX1R (Homo sapiens, UniProt O43613); assay: In vitro test of OX1R: calcium signal change in cells detected with FLIPR; assay type: cell-based; conditions: HEK293-OX1 stable cell strain, Fluo-4 AM calcium signal, Orexin A at EC70
T2 construct: expressed in transfected cells
T2 sequence (O43613 1-425): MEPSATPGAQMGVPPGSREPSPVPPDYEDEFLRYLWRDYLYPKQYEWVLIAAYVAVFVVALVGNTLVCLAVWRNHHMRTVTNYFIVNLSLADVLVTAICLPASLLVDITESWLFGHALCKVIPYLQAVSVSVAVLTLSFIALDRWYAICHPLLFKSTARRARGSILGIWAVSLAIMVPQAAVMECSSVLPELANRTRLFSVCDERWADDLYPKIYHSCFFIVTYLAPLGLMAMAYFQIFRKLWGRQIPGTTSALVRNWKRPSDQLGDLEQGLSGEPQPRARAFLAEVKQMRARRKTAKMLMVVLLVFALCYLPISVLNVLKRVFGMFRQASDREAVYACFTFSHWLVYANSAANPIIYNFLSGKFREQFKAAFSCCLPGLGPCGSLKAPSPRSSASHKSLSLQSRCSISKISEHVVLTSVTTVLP
Protocol: as §1, §2, §3, §4, §5, §6

[1] = read-out: IC50 detected in FLIPR, hOX2R
[2] = read-out: IC50 detected in FLIPR, hOX1R

| SMILES | IC50 (hOX2R; [1]) | IC50 (hOX1R; [2]) | IC50 (hOX2R; IC50 detected in FLIPR, hOX2R) | IC50 (hOX1R; IC50 detected in FLIPR, hOX1R) |
| --- | --- | --- | --- | --- |
| O=C(c1cc(Cl)ccc1-n1ccnn1)N1C2CC[C@H]1CC[C@@H]2COc1ccc(F)cn1 [Example 19] | 372 nM | 41 nM | – | – |
| O=C(c1cc(Cl)ccc1-c1ncccn1)N1C2CC[C@H]1CC[C@@H]2COc1ccc(F)cn1 [Example 18] | – | – | 904 nM | 127 nM |
| Cc1ccc(-c2ccccn2)c(C(=O)N2C3CC[C@H]2CC[C@@H]3COc2ccc(F)cn2)c1 [Example 11] | 363 nM | 321 nM | – | – |
| Cc1ccc(-c2ncccn2)c(C(=O)N2C3CC[C@H]2CC[C@@H]3COc2cccnc2)c1 [Example 31] | – | – | 221 nM | 305 nM |
| Cc1ccc(C)c(C(=O)N2C3CC[C@H]2CC[C@@H]3OCc2ccc(F)cn2)c1 [Example 36] | 195 nM | 217 nM | – | – |
| Cc1ccc(-c2ncccn2)c(C(=O)N2C3CCC(c4nc5ccccc5o4)C2CC3)c1 (stereo not drawn) [Example 28] | – | – | 23 nM | 34 nM |
| Cc1ccc(-c2ccccc2)c(C(=O)N2C3CC[C@H]2CC[C@@H]3COc2ccc(F)cn2)c1 [Example 12] | – | – | 206 nM | 219 nM |
| Cc1ccc(-c2ncccn2)c(C(=O)N2C3CCC(COc4ccc(F)cn4)C2CC3)c1 (single isomer, unassigned) [Example 8] | 4610 nM | 4260 nM | – | – |
| Cc1ccc(-c2ncccn2)c(C(=O)N2C3CC[C@H]2CC[C@@H]3COc2ccc(F)cc2)c1 [Example 29] | 121 nM | 68 nM | – | – |
| O=C(c1cc(Cl)ccc1-n1nccn1)N1C2CC[C@H]1CC[C@@H]2COc1ccc(F)cn1 [Example 16] | – | – | 440 nM | 56 nM |
| O=C(c1c(F)cccc1-n1nccn1)N1C2CC[C@H]1CC[C@@H]2COc1ccc(F)cn1 [Example 9] | – | – | 15 nM | 24 nM |
| Cc1cccc(C(=O)N2C3CC[C@H]2CC[C@@H]3COc2ccc(F)cn2)c1 [Example 21] | 741 nM | 567 nM | – | – |
| Cc1ccc(-c2ncccn2)c(C(=O)N2C3CC[C@H]2CC[C@@H]3COc2ccc(F)cc2F)c1 [Example 30] | – | – | 262 nM | 489 nM |
| Cc1nc(C(=O)N2C3CC[C@H]2CC[C@@H]3COc2ccc(F)cn2)c(-c2ccccc2)s1 [Example 10] | – | – | 73 nM | 29 nM |
| O=C(c1ccc(F)cc1-n1nccn1)N1C2CC[C@H]1CC[C@@H]2COc1ccc(F)cn1 [Example 15] | – | – | 55 nM | 37 nM |
| Cc1ccc(-n2nccn2)c(C(=O)N2C3CCC(COc4ccc(F)cn4)C2CC3)c1 (single isomer, unassigned) [Example 3] | 1420 nM | 2070 nM | – | – |
| Cc1ccc(-c2ncccn2)c(C(=O)N2C3CC[C@H](COc4ccc(F)cn4)[C@@H]2CC3)c1 [Example 6] | 4190 nM | 2550 nM | – | – |
| O=C(c1cc(F)ccc1-c1ncccn1)N1C2CC[C@H]1CC[C@@H]2COc1ccc(F)cn1 [Example 17] | 47 nM | 43 nM | – | – |
